According to patent US10167258B2, “Inhibitors of mitochondrial pyruvate dehydrogenase kinase isoforms 1-4 and uses thereof” (The Board of Regents of the University of Texas System, priority 2013, dated 2019):
pIC50: −log10 of the molar value. Read-outs that look alike come from different tables or passages of the source.

Key:
PDK3 = PDK3 (Homo sapiens, UniProt Q15120); assay: Assay for inhibition of PDK activity, PDK3; assay type: biochemical; set-up: made in house; details: absence of E2/E3BP core (−)
Procedure: (§1) Recombinant human PDK2 was expressed and purified as a N terminal His6-tagged SUMO fusion protein with a tobacco-etch-virus protease (TEV) cleavage site in front of the N-terminal PDK2 sequence (26), and was used directly for the activity assay and binding affinity analyses. For crystallization, the protein was subjected to a TEV-protease digestion, and the untagged PDK2 protein was purified on a Superdex 200 column in 20 mM Tris-HCl (pH 8.0), 150 mM NaCl and 5 mM DTT. The purified protein was concentrated to 35-40 mg/ml and stored at −80° C. in small aliquots. Recombinant human PDK1, PDK3 and PDK4 were expressed and purified as described previously (26).
. The remaining steps were described previously (26). IC50 values were obtained by the curve fitting of inhibition isotherms using Prism 6 (GraphPad software, Inc.).

DIO mice = assay: Glucose tolerance test in DIO mice; assay type: in vivo; details: 70 mg/kg/day IP for 4 weeks, 1.5 g/kg glucose challenge
Procedure: (§2) Six- to eight-week old C57BL/6J male mice were obtained from the local campus breeding colony at UT Southwestern Medical Center (Dallas, Tex.) and randomized into two groups: vehicle- and PS10-treated. Prior to the treatment, mice were fed with a 60% high-fat diet, which contained 32% saturated and 68% unsaturated fat (catalog number: D12492, Research Diet Inc. New Brunswick, N.J.), for eight to ten weeks to produce DIO animals. PS-10 was dissolved in 100% DMSO and then diluted to make a 10% DMSO aqueous solution containing 17.5% (w/v) (2-hydroxypropyl)-β-cyclodextrin for delivery. Animals were dosed at mid-day by intraperitoneal (IP) injections at 70 mg/kg using 1-ml syringe and 30-gauge needle. The length of the treatment is indicted in each experiment. At 10 h after the last injection, animals were euthanized using carbon dioxide asphyxiation followed by cervical dislocation and dissection. Blood was harvested by cardiac puncture and stored on ice. Acidified citrate dextrose (ACD) was used as an anticoagulant. Immediately after blood collection, heart, liver, kidneys and both hind-leg quadriceps muscles were removed and snap frozen in liquid nitrogen. Average ischemia time before organ harvest was about 2 to 3 min. Blood was centrifuged in an Eppendorf 5415R refrigerated microcentrifuge at 9,300×g for 5 min to isolate plasma, which was subsequently stored at −80° C.
Mice were fasted for 6 hours after compound treatment. Ten hours after compound administration, 1.5 g/kg of glucose was delivered intraperitoneally to mice. Tail vein serum samples were collected immediately before and 15, 30, 60 and 120 minutes after the glucose challenge. The glucose levels in serum samples were determined by a glucose meter.

HeLa cells = details: read-out: IC50 for the growth inhibition of HeLa cells
PDK2 = PDK2 (Homo sapiens, UniProt Q15119); assay: Assay for inhibition of PDK activity, PDK2; assay type: biochemical; set-up: made in house
Procedure: as §1, with “For crystallization, the protein was subjected to a TEV-protease digestion, and the untagged PDK2 protein was purified on a Superdex 200 column in 20 mM Tris-HCl (pH 8.0), 150 mM NaCl and 5 mM DTT.” left out
The remaining steps were described previously (26). IC50 values were obtained by the curve fitting of inhibition isotherms using Prism 6 (GraphPad software, Inc.).

PDP1 = target: T1, PDP1 (Homo sapiens, UniProt Q9P0J1); assay: PDP1 activity in vitro; assay type: biochemical; details: at up to 1 mM
T1 sequence (Q9P0J1 72-537): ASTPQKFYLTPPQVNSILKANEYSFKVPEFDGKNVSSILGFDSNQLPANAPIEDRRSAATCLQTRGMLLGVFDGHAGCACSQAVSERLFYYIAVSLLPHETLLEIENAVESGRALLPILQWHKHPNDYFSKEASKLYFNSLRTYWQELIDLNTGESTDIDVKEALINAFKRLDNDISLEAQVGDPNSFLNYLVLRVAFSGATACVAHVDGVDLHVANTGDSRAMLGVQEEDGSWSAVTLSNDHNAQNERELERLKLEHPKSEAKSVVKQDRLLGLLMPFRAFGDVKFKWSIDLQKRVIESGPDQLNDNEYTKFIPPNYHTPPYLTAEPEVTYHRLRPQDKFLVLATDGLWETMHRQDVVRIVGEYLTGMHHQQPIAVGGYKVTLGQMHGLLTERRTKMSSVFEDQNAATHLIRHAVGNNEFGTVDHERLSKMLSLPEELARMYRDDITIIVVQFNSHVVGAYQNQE

[1] = Solubility in DMSO used in the formulation; assay type: physicochemical; details: compared with PS8
[2] = system: phosphorylated E1α subunit; assay: Western blotting of phosphorylated E1α subunit in tissues of DIO mice; assay type: in vivo; details: single dose 70 mg/kg IP, 10 h
Procedure: as §2, with “C. […]” for “C.”

[3] = Food intake, body weight and fat mass of DIO mice; assay type: in vivo; details: 70 mg/kg/day
Procedure: as §2

Sequence of PDK3 (Q15120 whole entry, the tested form may be a part): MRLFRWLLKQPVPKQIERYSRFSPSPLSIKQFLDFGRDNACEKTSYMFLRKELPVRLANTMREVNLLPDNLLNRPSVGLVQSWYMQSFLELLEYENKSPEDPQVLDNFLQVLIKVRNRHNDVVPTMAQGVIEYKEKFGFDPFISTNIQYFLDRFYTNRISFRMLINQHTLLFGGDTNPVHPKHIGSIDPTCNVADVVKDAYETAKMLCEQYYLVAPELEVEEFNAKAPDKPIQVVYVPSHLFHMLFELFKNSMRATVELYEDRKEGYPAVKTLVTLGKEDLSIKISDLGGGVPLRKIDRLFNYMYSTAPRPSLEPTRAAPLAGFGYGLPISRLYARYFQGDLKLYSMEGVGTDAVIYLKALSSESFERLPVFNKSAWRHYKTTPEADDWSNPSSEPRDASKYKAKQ

O=S(=O)(c1ccc(O)cc1O)N1Cc2cc(O)cc(O)c2C1 [PS10, 2-((2,4-dihydroxyphenyl)sulfonyl)isoindoline-4,6-diol]
pIC50 (PDK3): 4.67 | plasma glucose level at 0 min (DIO mice): 168 mg/dL | plasma glucose level at 30 min (DIO mice): 312 mg/dL | plasma glucose level at 120 min (DIO mice): 163 mg/dL | pIC50 (HeLa cells): 3.55 | IC50 (PDK2; Table 1, inhibitor 31.6 nM to 1 mM, read-out: IC50, μM for PDK2): 0.8 µM | pIC50 (PDK2; absence of E2/E3BP core (−), read-out: IC50 for PDK2): 6.10 | effect on PDP1 activity in vitro (PDP1): without effect | solubility in DMSO [1]: better solubility in DMSO | amounts of the phosphorylated E1α subunit in heart and liver vs vehicle-treated [2]: significantly decreased | body weight vs vehicle-treated [3]: no significant differences | fat-mass vs vehicle-treated [3]: reduction | food intake vs vehicle-treated [3]: no significant differences
